Several values for one entry are separate records, joined by “and”; a condition that tells them apart may be missing. Equal values may be shown once. Inconclusive results and toxic doses are left out. Rule as the data show it: active = T/C of 150% or more; inactive = T/C below 125%.
Test system: L1210 leukemia ip in BDF1 mice, survival T/C
Experiment: NCI In Vivo Anticancer Drug Screen. Data for tumor model L1210 Leukemia (intraperitoneal) in B6D2F1 (BDF1) mice
Conditions: endpoint: mean survival time, higher = longer survival
How it was run: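 Each compound was tested against a transplantable tumor grown in mice. The endpoint was survival, with treated animals benchmarked against vehicle controls as a simple ratio.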

[1] = dose: 100.0 mg/kg/injection, schedule: Q01DX001 (ip), vehicle: carboxymethylcellulose (CMC)
[2] = dose: 200.0 mg/kg/injection, schedule: Q01DX001 (ip), vehicle: carboxymethylcellulose (CMC)
[3] = dose: 400.0 mg/kg/injection, schedule: Q01DX001 (ip), vehicle: carboxymethylcellulose (CMC)
[4] = dose: 100.0 mg/kg/injection, schedule: Q04DX003 (ip), vehicle: saline with Tween-80
[5] = dose: 50.0 mg/kg/injection, schedule: Q01DX009 (ip), vehicle: saline
[6] = dose: 100.0 mg/kg/injection, schedule: Q01DX009 (ip), vehicle: saline
[7] = dose: 100.0 mg/kg/injection, schedule: Q04DX002 (ip), vehicle: saline
[8] = dose: 200.0 mg/kg/injection, schedule: Q01DX009 (ip), vehicle: saline
[9] = dose: 200.0 mg/kg/injection, schedule: Q04DX002 (ip), vehicle: saline
[10] = dose: 100.0 mg/kg/injection, schedule: Q01DX001 (ip), vehicle: saline
[11] = dose: 100.0 mg/kg/injection, schedule: Q04DX003 (ip), vehicle: saline
[12] = dose: 200.0 mg/kg/injection, schedule: Q01DX001 (ip), vehicle: saline
[13] = dose: 200.0 mg/kg/injection, schedule: Q04DX003 (ip), vehicle: saline
[14] = dose: 400.0 mg/kg/injection, schedule: Q01DX001 (ip), vehicle: saline
[15] = dose: 400.0 mg/kg/injection, schedule: Q04DX003 (ip), vehicle: saline
[16] = dose: 12.5 mg/kg/injection, schedule: Q04DX003 (ip), vehicle: saline
[17] = dose: 25.0 mg/kg/injection, schedule: Q04DX003 (ip), vehicle: saline
[18] = dose: 50.0 mg/kg/injection, schedule: Q04DX003 (ip), vehicle: saline
[19] = dose: 75.0 mg/kg/injection, schedule: Q01DX001 (ip), vehicle: saline
[20] = dose: 100.0 mg/kg/injection, schedule: Q01DX009 (ip), vehicle: Klucel (hydroxypropylcellulose) (HPC)
[21] = dose: 200.0 mg/kg/injection, schedule: Q01DX009 (ip), vehicle: Klucel (hydroxypropylcellulose) (HPC)
[22] = dose: 400.0 mg/kg/injection, schedule: Q01DX009 (ip), vehicle: Klucel (hydroxypropylcellulose) (HPC)
[23] = dose: 400.0 mg/kg/injection, schedule: Q04DX002 (ip), vehicle: saline

Measured: T/C

Cc1nc2[nH]c(=O)[nH]c(=O)c2nc1C
inactive: dose: 16.0 mg/kg/injection, schedule: Q01DX Z (ip), vehicle: methylcellulose (MC) 100 % of control | dose: 31.0 mg/kg/injection, schedule: Q01DX Z (ip), vehicle: methylcellulose (MC) 95 % of control | dose: 62.0 mg/kg/injection, schedule: Q01DX Z (ip), vehicle: methylcellulose (MC) 87 % of control | dose: 100.0 mg/kg/injection, schedule: Q01DX001 (ip), vehicle: other 104 % of control | dose: 100.0 mg/kg/injection, schedule: Q04DX003 (ip), vehicle: other 96 % of control | dose: 125.0 mg/kg/injection, schedule: Q01DX Z (ip), vehicle: methylcellulose (MC) 92 % of control and 93 % of control | dose: 200.0 mg/kg/injection, schedule: Q01DX001 (ip), vehicle: other 107 % of control | dose: 200.0 mg/kg/injection, schedule: Q04DX003 (ip), vehicle: other 104 % of control | dose: 250.0 mg/kg/injection, schedule: Q01DX Z (ip), vehicle: methylcellulose (MC) 89 % of control | dose: 400.0 mg/kg/injection, schedule: Q01DX001 (ip), vehicle: other 102 % of control | dose: 400.0 mg/kg/injection, schedule: Q04DX003 (ip), vehicle: other 96 % of control | dose: 500.0 mg/kg/injection, schedule: Q01DX Z (ip), vehicle: methylcellulose (MC) 89 % of control

CCOC(=O)C/C(C)=N/N=C(\CCOC)COC
inactive: [1] 87 % of control | [2] 103 % of control | [3] 103 % of control

CCc1ccc(N=Nc2ccc(NC)cc2)cc1
inactive: [1] 98 % of control | [2] 93 % of control | [3] 98 % of control

COc1cccc2c1C(=O)CC2
inactive: dose: 25.0 mg/kg/injection, schedule: Q01DX009 (ip), vehicle: acetone 101 % of control | dose: 50.0 mg/kg/injection, schedule: Q01DX009 (ip), vehicle: acetone 106 % of control | dose: 100.0 mg/kg/injection, schedule: Q01DX009 (ip), vehicle: acetone 103 % of control | [4] 87 % of control

CCOC(=O)C1(C(C)C)OC2(O)CCCCCN2C1=O (stereo unspecified)
inactive: [5] 95 % of control | [6] 100 % of control | [7] 89 % of control | [8] 95 % of control | [9] 92 % of control

COC(=O)/C=C(\C)Nc1ccc(-c2ccccc2)cc1
inactive: [5] 103 % of control | [10] 97 % of control | [6] 102 % of control | [11] 101 % of control | [12] 95 % of control | [8] 100 % of control | [13] 97 % of control | [14] 92 % of control | [15] 97 % of control

CCCCCCC(=C/c1ccccc1)/C=N/NC(=O)c1ccc[n+](C)c1
inactive: dose: 25.0 mg/kg/injection, schedule: Q04DX003 (ip), vehicle: saline with Tween-80 93 % of control | dose: 50.0 mg/kg/injection, schedule: Q04DX003 (ip), vehicle: saline with Tween-80 116 % of control | [4] 104 % of control

CN1CCC=C(CN2c3ccccc3Sc3ccc(Cl)cc32)C1
inactive: dose: 12.5 mg/kg/injection, schedule: Q01DX009 (ip), vehicle: saline 119 % of control | [16] 101 % of control | dose: 16.5 mg/kg/injection, schedule: Q04DX003 (ip), vehicle: saline 98 % of control | dose: 25.0 mg/kg/injection, schedule: Q01DX009 (ip), vehicle: saline 113 % of control | [17] 105 % of control | dose: 37.5 mg/kg/injection, schedule: Q04DX003 (ip), vehicle: saline 105 % of control | [5] 114 % of control | [18] 110 % of control

CC1(C)N=C2OCCN2C1=O
inactive: [16] 101 % of control | [17] 111 % of control | [18] 93 % of control | [11] 101 % of control | [13] 98 % of control and 102 % of control | dose: 300.0 mg/kg/injection, schedule: Q04DX003 (ip), vehicle: saline 104 % of control

Cc1c2ccc3ccccc3c2c(C)[n+]2ccccc12
inactive: dose: 2.0 mg/kg/injection, schedule: Q01DX Z (ip), vehicle: carboxymethylcellulose (CMC) 122 % of control | dose: 4.0 mg/kg/injection, schedule: Q01DX Z (ip), vehicle: carboxymethylcellulose (CMC) 106 % of control | dose: 8.0 mg/kg/injection, schedule: Q01DX Z (ip), vehicle: carboxymethylcellulose (CMC) 93 % of control

COC(=O)c1cc(=O)c2c(=O)n(Cc3ccccc3)c(=O)n(Cc3ccccc3)c2[nH]1
inactive: dose: 100.0 mg/kg/injection, schedule: Q01DX001 (ip), vehicle: Klucel (hydroxypropylcellulose) (HPC) 106 % of control | dose: 200.0 mg/kg/injection, schedule: Q01DX001 (ip), vehicle: Klucel (hydroxypropylcellulose) (HPC) 100 % of control | dose: 400.0 mg/kg/injection, schedule: Q01DX001 (ip), vehicle: Klucel (hydroxypropylcellulose) (HPC) 118 % of control

CCCCCC[CH2][Ge][CH2]CCCCCC
inactive: dose: 100.0 mg/kg/injection, schedule: Q04DX002 (ip), vehicle: saline with Tween-80 95 % of control | dose: 200.0 mg/kg/injection, schedule: Q04DX002 (ip), vehicle: saline with Tween-80 92 % of control | dose: 400.0 mg/kg/injection, schedule: Q04DX002 (ip), vehicle: saline with Tween-80 103 % of control

O=C(CI)NCc1ccccc1
inactive: [19] 96 % of control

CCOc1ccccc1NC(=O)Nc1ccc(Cl)cc1
inactive: [20] 97 % of control | dose: 100.0 mg/kg/injection, schedule: Q04DX003 (ip), vehicle: Klucel (hydroxypropylcellulose) (HPC) 100 % of control | [21] 103 % of control | dose: 200.0 mg/kg/injection, schedule: Q04DX003 (ip), vehicle: Klucel (hydroxypropylcellulose) (HPC) 96 % of control | [22] 101 % of control | dose: 400.0 mg/kg/injection, schedule: Q04DX003 (ip), vehicle: Klucel (hydroxypropylcellulose) (HPC) 100 % of control

CC1OC1C1OC1C (stereo unspecified)
inactive: [7] 109 % of control | [11] 104 % of control and 101 % of control and 97 % of control | [9] 109 % of control | [13] 108 % of control and 111 % of control and 95 % of control | [23] 109 % of control | [15] 111 % of control and 97 % of control and 98 % of control

NCC(=O)Oc1c(Cl)c(Cl)c(Cl)c(Cl)c1Cl
inactive: [19] 104 % of control

OCCCN1CCC2(CC1)SSC1(CCN(CCCO)CC1)S2
inactive: [5] 95 % of control | [6] 101 % of control | [11] 95 % of control | [13] 98 % of control

Nc1nc(N)nc(CBr)n1
inactive: dose: 12.5 mg/kg/injection, schedule: Q01DX001 (ip), vehicle: Klucel (hydroxypropylcellulose) (HPC) 103 % of control | dose: 50.0 mg/kg/injection, schedule: Q01DX001 (ip), vehicle: Klucel (hydroxypropylcellulose) (HPC) 115 % of control

COc1ccc(/C=N/NC(=O)CNC(=O)Nc2cccc(Cl)c2Cl)cc1
inactive: dose: 50.0 mg/kg/injection, schedule: Q01DX009 (ip), vehicle: saline with Tween-80 93 % of control | dose: 100.0 mg/kg/injection, schedule: Q01DX009 (ip), vehicle: saline with Tween-80 96 % of control

CCOCCOCCOC(C)Oc1cccc(OC)c1 (stereo unspecified)
inactive: [7] 107 % of control | [9] 101 % of control | [23] 96 % of control

Clc1ccnc(NC2CCCCC2)c1
inactive: [10] 92 % of control | [12] 98 % of control | [14] 100 % of control

CCCc1ccc(C(=O)O)cc1
inactive: [20] 95 % of control | [21] 91 % of control | [22] 98 % of control

NNc1ccc(CC(=O)O)cc1
inactive: [10] 98 % of control | [12] 93 % of control | [14] 98 % of control

C=C(CCCC)CNCCOC(=O)c1ccc([N+](=O)[O-])cc1
inactive: [16] 98 % of control | [17] 93 % of control | [18] 100 % of control

Cc1cc(=O)[nH]c(C(F)(F)F)n1
inactive: dose: 44.0 mg/kg/injection, schedule: Q01DX Z (ip), vehicle: methylcellulose (MC) 93 % of control | dose: 66.0 mg/kg/injection, schedule: Q01DX Z (ip), vehicle: methylcellulose (MC) 107 % of control | dose: 100.0 mg/kg/injection, schedule: Q01DX Z (ip), vehicle: methylcellulose (MC) 102 % of control

CC1CCCCC1C(=O)N1CCCC1 (stereo unspecified)
inactive: [7] 101 % of control | [9] 105 % of control

O=C(O)c1ccc(/C=N/NC(=O)c2cccc3ccccc23)cc1
inactive: [10] 87 % of control | [12] 87 % of control
